The text below walks through data of ChEMBL document CHEMBL4609994, “Application of protein knockdown strategy targeting β-sheet structure to multiple disease-associated polyglutamine proteins” (Bioorg Med Chem, 2020).

Assay [1] relates to Baculoviral IAP repeat-containing protein 2/Ataxin-7 (Homo sapiens), Q13490+O15265 [UNDEFINED MUTATION]. Description: Protac activity at C-IAP1/ataxin-7 mutant in fibroblasts derived from SCA7 patient assessed as reduction in mutant ataxin-7 expression at 10 uM after 24 hrs by Western blot analysis. For orientation: A western blot detects proteins with antibodies after separation by electrophoresis.

Assay [2] relates to Baculoviral IAP repeat-containing protein 2/Atrophin-1 (Homo sapiens), Q13490+P54259 [UNDEFINED MUTATION]. Description: Protac activity at C-IAP1/atrophin-1 mutant in fibroblasts derived from DRPLA patient assessed as reduction in mutant atrophin-1 expression at 10 uM after 24 hrs by Western blot analysis.
Assay [3] has the same test system. Description: Protac activity at C-IAP1/atrophin-1 mutant in fibroblasts derived from DRPLA patient assessed as reduction in mutant atrophin-1 expression at 10 uM after 24 hrs in presence of proteasome inhibitor epoxomicin by Western blot analysis.
Assay [4] concerns Baculoviral IAP repeat-containing protein 2/Ataxin-7 (Homo sapiens), Q13490+O15265 [UNDEFINED MUTATION]. Description: Protac activity at C-IAP1/ataxin-7 mutant in fibroblasts derived from SCA7 patient assessed as reduction in mutant ataxin-7 expression at 10 uM by Western blot analysis. Particulars: TDE = time-dependent effect.
For assay [5] the test system is unchanged. Description: Protac activity at C-IAP1/ataxin-7 mutant in fibroblasts derived from SCA7 patient assessed as reduction in mutant ataxin-7 expression at 10 uM after 24 hrs in presence of proteasome inhibitor epoxomicin by Western blot analysis.
Assay [6] relates to Baculoviral IAP repeat-containing protein 2/Atrophin-1 (Homo sapiens), Q13490+P54259 [UNDEFINED MUTATION]. Description: Protac activity at C-IAP1/atrophin-1 mutant in fibroblasts derived from DRPLA patient assessed as reduction in mutant atrophin-1 expression at 10 uM after 24 hrs in presence of proteasome inhibitor MG132 by Western blot analysis.
Assay [7] has the same test system. Description: Protac activity at C-IAP1/atrophin-1 mutant in fibroblasts derived from DRPLA patient assessed as reduction in mutant atrophin-1 expression after 24 to 48 hrs by Western blot analysis.
Assay [8] relates to Baculoviral IAP repeat-containing protein 2/Ataxin-7 (Homo sapiens), Q13490+O15265 [UNDEFINED MUTATION]. Description: Protac activity at C-IAP1/ataxin-7 mutant in fibroblasts derived from SCA7 patient assessed as reduction in mutant ataxin-7 expression at 10 uM after 24 hrs in presence of proteasome inhibitor MG132 by Western blot analysis.
Assay [9] has as its system Baculoviral IAP repeat-containing protein 2/Atrophin-1 (Homo sapiens), Q13490+P54259 [UNDEFINED MUTATION]. Description: Protac activity at C-IAP1/atrophin-1 mutant in fibroblasts derived from DRPLA patient assessed as reduction in mutant atrophin-1 expression at 10 uM by Western blot analysis. Particulars: TDE = time-dependent effect.
For assay [10], the system named is Baculoviral IAP repeat-containing protein 2/Ataxin-7 (Homo sapiens), Q13490+O15265 [UNDEFINED MUTATION]. Description: Protac activity at C-IAP1/ataxin-7 mutant in fibroblasts derived from SCA7 patient assessed as reduction in mutant ataxin-7 expression after 24 to 48 hrs by Western blot analysis.
Assay [11] concerns Baculoviral IAP repeat-containing protein 2/Ataxin-3 (Homo sapiens), Q13490+P54252 [UNDEFINED MUTATION]. Description: Protac activity at C-IAP1/Ataxin-3 mutant in fibroblasts derived from SCA3 patient assessed as reduction in mutant ataxin-3 expression after 24 to 48 hrs by Western blot analysis.
Assay [12] has the same test system. Description: Protac activity at C-IAP1/ataxin-3 mutant in fibroblasts derived from SCA3 patient assessed as reduction in mutant ataxin-3 expression at 10 uM by Western blot analysis. The conditions noted are these: TDE = time-dependent effect.

Active and inactive are the calls of the source. No cut-off for these calls is given here.

Chain of Baculoviral IAP repeat-containing protein 2/Atrophin-1 (Homo sapiens), Q13490+P54259 [UNDEFINED MUTATION] (P54259 whole entry, looked up, change not shown): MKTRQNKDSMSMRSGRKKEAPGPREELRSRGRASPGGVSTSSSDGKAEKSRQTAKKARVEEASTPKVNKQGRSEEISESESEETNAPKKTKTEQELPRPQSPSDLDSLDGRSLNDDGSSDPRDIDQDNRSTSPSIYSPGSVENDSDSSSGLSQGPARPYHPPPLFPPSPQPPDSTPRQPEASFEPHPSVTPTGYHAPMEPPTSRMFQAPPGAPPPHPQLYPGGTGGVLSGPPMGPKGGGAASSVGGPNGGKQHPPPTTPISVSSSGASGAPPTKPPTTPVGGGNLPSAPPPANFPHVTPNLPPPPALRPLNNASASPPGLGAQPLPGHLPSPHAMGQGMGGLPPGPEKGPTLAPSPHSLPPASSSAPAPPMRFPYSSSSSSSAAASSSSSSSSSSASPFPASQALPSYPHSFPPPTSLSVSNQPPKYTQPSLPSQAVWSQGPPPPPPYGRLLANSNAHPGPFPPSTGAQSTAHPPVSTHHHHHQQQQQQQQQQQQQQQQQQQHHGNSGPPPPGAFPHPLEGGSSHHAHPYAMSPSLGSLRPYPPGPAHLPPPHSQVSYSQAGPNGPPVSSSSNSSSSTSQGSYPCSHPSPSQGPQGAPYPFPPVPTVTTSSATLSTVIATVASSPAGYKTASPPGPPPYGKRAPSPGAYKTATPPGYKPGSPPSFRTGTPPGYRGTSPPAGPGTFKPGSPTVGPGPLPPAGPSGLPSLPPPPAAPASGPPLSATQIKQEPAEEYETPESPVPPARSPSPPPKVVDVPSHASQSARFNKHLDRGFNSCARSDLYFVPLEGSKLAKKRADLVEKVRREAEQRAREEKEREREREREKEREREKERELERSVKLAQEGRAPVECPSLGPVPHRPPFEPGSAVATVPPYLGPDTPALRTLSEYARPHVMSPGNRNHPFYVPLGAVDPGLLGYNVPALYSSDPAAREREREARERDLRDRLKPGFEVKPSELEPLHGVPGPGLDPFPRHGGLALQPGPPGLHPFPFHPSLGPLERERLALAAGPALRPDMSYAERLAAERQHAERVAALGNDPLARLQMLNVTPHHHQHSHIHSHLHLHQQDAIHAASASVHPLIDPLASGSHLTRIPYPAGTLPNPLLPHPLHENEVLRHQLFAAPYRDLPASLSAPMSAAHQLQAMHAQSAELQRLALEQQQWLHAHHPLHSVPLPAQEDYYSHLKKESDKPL
Chain of Baculoviral IAP repeat-containing protein 2/Atrophin-1 (Homo sapiens), Q13490+P54259 [UNDEFINED MUTATION] (Q13490 whole entry, looked up, change not shown): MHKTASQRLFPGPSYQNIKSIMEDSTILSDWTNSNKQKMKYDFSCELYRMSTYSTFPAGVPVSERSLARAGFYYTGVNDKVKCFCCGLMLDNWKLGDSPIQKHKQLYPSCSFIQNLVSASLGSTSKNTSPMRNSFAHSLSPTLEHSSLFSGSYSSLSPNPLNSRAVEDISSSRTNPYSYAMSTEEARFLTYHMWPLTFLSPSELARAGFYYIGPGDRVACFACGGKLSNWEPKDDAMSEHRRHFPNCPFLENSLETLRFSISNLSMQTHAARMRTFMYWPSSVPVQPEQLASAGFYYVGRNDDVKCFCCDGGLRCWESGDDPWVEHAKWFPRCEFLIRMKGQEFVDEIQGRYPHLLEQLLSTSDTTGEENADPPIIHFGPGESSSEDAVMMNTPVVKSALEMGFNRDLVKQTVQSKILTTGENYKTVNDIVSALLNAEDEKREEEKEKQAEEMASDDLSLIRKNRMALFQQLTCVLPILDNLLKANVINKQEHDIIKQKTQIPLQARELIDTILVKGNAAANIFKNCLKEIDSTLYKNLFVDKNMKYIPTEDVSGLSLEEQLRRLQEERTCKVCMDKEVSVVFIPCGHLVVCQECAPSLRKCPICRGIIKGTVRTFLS
Chain of Baculoviral IAP repeat-containing protein 2/Ataxin-3 (Homo sapiens), Q13490+P54252 [UNDEFINED MUTATION] (P54252 whole entry, looked up, change not shown): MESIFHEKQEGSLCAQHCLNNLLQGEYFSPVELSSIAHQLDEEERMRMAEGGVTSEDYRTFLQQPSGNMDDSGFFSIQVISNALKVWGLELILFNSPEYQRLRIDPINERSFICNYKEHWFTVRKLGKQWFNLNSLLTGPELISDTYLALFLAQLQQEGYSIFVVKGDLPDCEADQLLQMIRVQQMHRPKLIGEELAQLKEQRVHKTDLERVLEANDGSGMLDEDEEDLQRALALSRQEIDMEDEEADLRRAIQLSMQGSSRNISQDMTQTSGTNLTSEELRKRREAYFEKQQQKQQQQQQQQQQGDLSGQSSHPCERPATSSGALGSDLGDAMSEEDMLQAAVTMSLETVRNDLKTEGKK
Chain of Baculoviral IAP repeat-containing protein 2/Ataxin-3 (Homo sapiens), Q13490+P54252 [UNDEFINED MUTATION] (Q13490 whole entry, looked up, change not shown): as the sequence (Q13490 whole entry, looked up, change not shown) above
Chain of Baculoviral IAP repeat-containing protein 2/Ataxin-7 (Homo sapiens), Q13490+O15265 [UNDEFINED MUTATION] (O15265 whole entry, looked up, stated change not applied): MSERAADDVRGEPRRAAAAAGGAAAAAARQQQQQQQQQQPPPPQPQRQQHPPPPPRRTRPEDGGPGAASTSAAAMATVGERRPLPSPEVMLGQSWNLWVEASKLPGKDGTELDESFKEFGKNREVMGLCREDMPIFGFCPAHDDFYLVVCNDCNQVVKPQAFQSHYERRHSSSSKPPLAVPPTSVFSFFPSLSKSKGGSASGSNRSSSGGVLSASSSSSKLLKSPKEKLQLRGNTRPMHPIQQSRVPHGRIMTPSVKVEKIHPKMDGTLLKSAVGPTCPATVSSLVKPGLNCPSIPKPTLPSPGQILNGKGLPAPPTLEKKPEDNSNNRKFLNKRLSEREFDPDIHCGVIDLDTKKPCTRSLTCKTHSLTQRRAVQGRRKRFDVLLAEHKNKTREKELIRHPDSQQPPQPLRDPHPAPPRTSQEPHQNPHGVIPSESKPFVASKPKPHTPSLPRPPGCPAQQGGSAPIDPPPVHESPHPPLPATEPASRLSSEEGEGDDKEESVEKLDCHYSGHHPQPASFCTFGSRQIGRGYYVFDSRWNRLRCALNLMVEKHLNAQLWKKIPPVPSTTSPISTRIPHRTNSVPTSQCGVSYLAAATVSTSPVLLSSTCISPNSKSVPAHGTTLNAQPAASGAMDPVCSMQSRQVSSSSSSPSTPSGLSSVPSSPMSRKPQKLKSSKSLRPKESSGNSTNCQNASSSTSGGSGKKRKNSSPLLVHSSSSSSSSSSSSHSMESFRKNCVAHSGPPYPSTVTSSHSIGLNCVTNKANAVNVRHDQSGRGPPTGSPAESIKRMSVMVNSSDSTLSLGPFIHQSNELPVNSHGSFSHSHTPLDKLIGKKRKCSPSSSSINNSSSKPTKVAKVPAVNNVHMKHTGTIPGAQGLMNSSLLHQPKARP
Chain of Baculoviral IAP repeat-containing protein 2/Ataxin-7 (Homo sapiens), Q13490+O15265 [UNDEFINED MUTATION] (Q13490 whole entry, looked up, stated change not applied): as the sequence (Q13490 whole entry, looked up, change not shown) above

As for `CNC(=O)[C@H](CC(C)C)NC(=O)[C@@H](O)[C@H](N)Cc1ccccc1`, the result in assay [1] and in assay [2] was inactive.

With `Cc1ccc2nc(-c3ccc(NCCOCCOCCNC(=O)[C@H](CC(C)C)NC(=O)[C@@H](O)[C@H](N)Cc4ccccc4)cc3)sc2c1`, the outcome in [3], in assay [5], in assay [6] and in assay [8] was inactive. The Activity entry in [4] is “Tde”; in assay [7] it was “Dose-dependent effect”; in [9], “Tde”; in assay [10], “Dose-dependent effect”; in assay [11] it was “Dose-dependent effect”; in assay [12], “Tde”. Also, the outcome in assay [1] and in [2] was Active.

Regarding `CNc1ccc(-c2nc3ccc(C)cc3s2)cc1`, the result in [1] and in assay [2] was inactive.

Take `CC(C)C[C@H](NC(=O)[C@@H](O)[C@H](N)Cc1ccccc1)C(=O)NCCOCCOCCOc1ccc2nc(/N=N/c3ccc(N(C)C)cc3)sc2c1`: the Activity result was “Tde” in assay [4]; “Dose-dependent effect” in assay [7]; “Tde” in assay [9]; “Dose-dependent effect” in assay [10]; “Dose-dependent effect” in assay [11]; “Tde” in assay [12].
